Values of other authors as cited in patent publication US20050163842A1, “Rosiglitazone and metformin formulations” (priority 2003, published 2005).

Tests used:
[1] = test system: animal models of type 2 diabetes
[2] = test system: mouse models of diabetes

SMILES: CN(CCOc1ccc(CC2SC(=O)NC2=O)cc1)c1ccccn1 (stereo not drawn) [Rosiglitazone, 5-[4-[2-(N-methyl-N-(2-pyridyl)amino)ethoxy]benzyl]thiazolidine-2,4-dione]
- hypoglycemia or impaired glucose tolerance [1]: did not induce hypoglycemia or impaired glucose tolerance
- development of overt diabetes ([2]; mouse models): prevent the development of overt diabetes
- blood glucose levels and hyperinsulinemia ([2]; several mouse models of diabetes): reduce blood glucose levels and hyperinsulinemia
